Source: ChEMBL document CHEMBL5108002, “Design, synthesis, and biological evaluation of novel 7-substituted 10,11-methylenedioxy-camptothecin derivatives against drug-resistant small-cell lung cancer in vitro and in vivo” (Eur J Med Chem, 2022)
Active and inactive are the calls of the source. The calls are words filed in the database; no cut-off is given here.

Assays:
NCI-H446 [1] = experiment: Antitumor activity against Irinotecan-resistant human NCI-H446 cells xenografted in BALB/c nude mouse assessed as tumor weight at 3 mg/kg, IG administered once a week and measured 3 times a week for 35 days relative to control; type: functional; settings: NCI-H446, po, 840 h, time 35 day, read-out: TGI
NCI-H69 [2] = experiment: Induction of apoptosis in human NCI-H69 cells assessed as inhibition of Mcl-1 protein expression at 0.1 to 100 nM incubated for 24 hrs by Western blot analysis; type: functional, cell-based; settings: dose 0.1-100 nM
NCI-H446 [3] = experiment: Induction of apoptosis in human NCI-H446 cells assessed as inhibition of Bcl-1 protein expression at 0.1 to 100 nM incubated for 24 hrs by Western blot analysis; type: functional, cell-based; settings: dose 0.1-100 nM
NCI-H69 [4] = experiment: Induction of apoptosis in human NCI-H69 cells assessed as increase in cleaved-caspase 3 protein expression at 0.1 to 100 nM measured after 24 hrs by Western blot analysis; type: functional, cell-based; settings: dose 0.1-100 nM
H69AR [5] = experiment: Induction of apoptosis in human NCI-H69AR cells assessed as inhibition of XIAP protein expression at 0.1 to 100 nM incubated for 24 hrs by Western blot analysis; type: functional, cell-based; settings: dose 0.1-100 nM
NCI-H69 [6] = experiment: Induction of apoptosis in human NCI-H69 cells assessed as increase in cleaved-PARP protein expression at 0.1 to 100 nM measured after 24 hrs by Western blot analysis; type: functional, cell-based; settings: dose 0.1-100 nM
NCI-H69 [7] = experiment: Antiproliferative activity against human NCI-H69 cells assessed as inhibition of cell growth incubated for 72 hrs by SRB assay; type: functional, cell-based; settings: NCI-H69, 72 h
NCI-H446 [8] = experiment: Induction of apoptosis in human NCI-H446 cells assessed as reduction in survivin mRNA level at 0.1 to 100 nM incubated for 24 hrs by RT-PCR analysis; type: functional, cell-based; settings: dose 0.1-100 nM
NCI-H446 [9] = experiment: Induction of apoptosis in human NCI-H446 cells assessed as dead cells at 10 nM incubated for 24 hrs by AnnexinV-FITC/PI staining based flow cytometry analysis (reference value: 0.22 %); type: functional
NCI-H69 [10] = experiment: Induction of apoptosis in human NCI-H69 cells assessed as increase in cleaved-caspase 9 protein expression at 0.1 to 100 nM measured after 24 hrs by Western blot analysis; type: functional, cell-based; settings: dose 0.1-100 nM
H69AR [11] = experiment: Induction of apoptosis in human NCI-H69AR cells assessed as early apoptotic cells at 100 nM incubated for 24 hrs by AnnexinV-FITC/PI staining based flow cytometry analysis (reference value: 0.35 %); type: functional
NCI-H446 [12] = experiment: Antiproliferative activity against etoposide/cisplatin combination-resistant human NCI-H446 cells assessed as inhibition of cell growth incubated for 72 hrs by SRB assay; type: functional, cell-based; settings: NCI-H446, 72 h

CC[C@@]1(O)C(=O)OCc2c1cc1n(c2=O)Cc2c-1nc1cc3c(cc1c2-c1ccoc1)OCO3
inhibition in vivo at 3 mg/kg (NCI-H446 [1]): 93.4%
inhibition (NCI-H69 [2]): Active
inhibition (NCI-H446 [3]): Active
Activity (NCI-H69 [4]): Active
inhibition (H69AR [5]): Active
Activity (NCI-H69 [6]): Active
IC50 (NCI-H69 [7]): 14.6 nM
Activity (NCI-H446 [8]): Active
Activity (NCI-H446 [9]): 2.78%
Activity (NCI-H69 [10]): Active
Activity (H69AR [11]): 1.73%
IC50 (NCI-H446 [12]): 0.49 nM
